The subject of assay [1] is cumulus enclosed oocytes (CEO). Put plainly: Oocyte assay, agonistic testing, cumulus enclosed oocytes (CEO assay). The conditions noted are these: hypoxanthine medium, 22 hours culture, control value in brackets. In kind it is cell-based, mice (B6D2-F1, strain C57BL×DBA). An excerpt:
(§1) Oocytes arrested in meiosis contain diffused chromosomes which are surrounded by an intact nuclear envelope known as the germinal vesicle (GV). Upon reinitiation of meiosis by the midcycle gonadotropin surge, the chromosomes recondense and the GV breaks down (GVBD). In vivo, the oocyte is exposed to hypoxanthine (HX), which maintains the oocyte arrested in the meiotic prophase. This meiotic arrest can be mimicked in vitro by addition of hypoxanthine to the culture medium. The agonistic activity of meiosis activating substances is measured as the ability to overcome the hypoxanthine maintained meiotic arrest in denuded oocytes (DO) or cumulus enclosed oocytes (CEO), i.e. as the ability to induce meiotic resumption in vitro.
(§2) Ovaries are obtained from immature female mice (B6D2-F1, strain C57BL×DBA). At the age of 19, 20 or 21 days the mice are injected subcutaneously with a single dose of 20 IU follicle stimulating hormone (Humegon, Organon, The Netherlands) in saline.
Forty-eight hours after follicle stimulating hormone injection mice are killed by cervical dislocation. The ovaries are removed, freed of extraneous tissue and placed in a multidish containing 0.5 ml preparation medium at 37° C. L-15 Leibovitz medium (Gibco, pH 7.3±0.1) supplemented with bovine serum albumin (3 mg·ml^−1), L-glutamine (0.23 mM), sodium pyruvate (2 mM) and hypoxanthine (4 mM) is used as preparation medium. […]
(§3) The oocyte assay is performed in 3 blocks, each block represents the ovaries of one mouse (randomized block design). […] At t=0 the number of oocytes with intact germinal vesicles (GV) or germinal vesicle break-down (GVBD) is counted under an inverted microscope with differential interference contrast equipment. […] At the end of the culture period the number of oocytes with GV or GVBD per group is counted. For statistical analysis the percentage germinal vesicle breakdown is calculated for each group in one block. These percentages are subjected to arcsin transformation, and differences between control and test compounds are analyzed by an ANOVA test for a randomized block design. […]

A further assay has as its system denuded oocytes (DO). Briefly: Oocyte assay, agonistic testing, denuded oocytes (DO assay). In kind it is cell-based, mice (B6D2-F1, strain C57BL×DBA). The conditions noted are these: hypoxanthine medium, 22 hours culture, control value in brackets.
Source text: as §1, §2
Forty-eight hours after follicle stimulating hormone injection mice are killed by cervical dislocation. The ovaries are removed, freed of extraneous tissue and placed in a multidish containing 0.5 ml preparation medium at 37° C. L-15 Leibovitz medium (Gibco, pH 7.3±0.1) supplemented with bovine serum albumin (3 mg·ml^−1), L-glutamine (0.23 mM), sodium pyruvate (2 mM) and hypoxanthine (4 mM) is used as preparation medium. The antral follicles of the ovaries are punctured under a dissecting microscope using two 27-gauge needles attached to two 1 ml syringes. Cumulus enclosed oocytes (CEO) of uniform size are selected with a mouth-controlled pipette and rinsed in 0.5 ml fresh preparation medium. About 20 CEO are obtained from one ovary.
Oocytes freed from cumulus cells, i.e. denuded oocytes (DO), are obtained by gently flushing CEO through a fine-bore mouth-controlled pipette. DO were collected in fresh MEM alpha medium, containing bovine serum albumin (3 mg·ml^−1), L-glutamine (0.23 mM), sodium pyruvate (2 mM) and hypoxanthine (4 mM), and washed twice before transfer to the test medium.
as §3

The subject of assay [2] is cultured cumulus enclosed and naked mouse oocytes. The following applies: cited from earlier work.

In the case of `CC(C)=CC[C@H](O)[C@@H](C)[C@H]1CC=C2C3=C(CC[C@@]21C)[C@@]1(C)CC[C@H](O)C(C)(C)[C@@H]1CC3` [22S-hydroxy-FF-Mas, (3β,5α,20S,22S)-4,4-dimethylcholesta-8,14,24-triene-3,22-diol], the “% GVBD CEO assay exp.” value in assay [1] (compound 5 μM) is reported as 73(2) %. Also, the “% GVBD DO assay exp.” value in the assay on denuded oocytes (DO) (compound 5 μM) is recorded as 97(2) %.

With `CC(C)=CCC[C@@H](C)[C@H]1CC[C@H]2C3=C(CC[C@]12C)[C@@]1(C)CC[C@H](O)C(C)(C)[C@@H]1CC3` [(3β,5α,20R)-4,4-dimethylcholesta-8,24-dien-3-ol], the “activation of the resumption of meiosis” value in assay [2] is listed as “able to activate the resumption of meiosis”.

Consider `CC(C)=CCC[C@@H](C)[C@H]1CC=C2C3=C(CC[C@@]21C)[C@@]1(C)CC[C@H](O)C(C)(C)[C@@H]1CC3` [FF-Mas, (3β,5α,20R)-4,4-dimethylcholesta-8,14,24-trien-3-ol], for which the “activation of the resumption of meiosis” value in assay [2] is recorded as “able to activate the resumption of meiosis”. Also, the “% GVBD CEO assay exp.” value in assay [1] (compound 10 μM) was 0(0) %. Besides, the “% GVBD DO assay exp.” value in the assay on denuded oocytes (DO) (compound 10 μM) is 84(7) %.

The values are drawn from patent publication US6518262B1, “22R-hydroxycholesta-8, 14-diene derivatives for the inhibition of meiosis” (Akzo Nobel N.V., priority 1999, dated 2003).
